The text below walks through data of PMC2266582 (The Journal of General Physiology, 2005).

In data set [1] the target is T1, KcsA tetramer (Streptomyces lividans, UniProt P0A334).
T1 sequence (P0A334 1-160): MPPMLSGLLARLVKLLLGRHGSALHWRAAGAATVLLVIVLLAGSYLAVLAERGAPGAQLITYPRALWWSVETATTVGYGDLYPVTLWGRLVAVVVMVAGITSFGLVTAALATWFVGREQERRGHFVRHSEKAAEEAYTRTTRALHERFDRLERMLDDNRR
Briefly: Tetramer protection titration of stabilizing cations against high temperature. In kind it is binding. To be noted: 100 mM choline Cl.

The conditions of data set [2]: cited from earlier work; for Pauling crystal radii: ref Bezanilla and Armstrong, 1972, Armstrong, 2003.
The target of data set [3] is T1, KcsA tetramer. Briefly: Temperature dependence of KcsA tetramer monitored by SDS-PAGE. To be noted: for effect on temperature dependence of KcsA tetramer: 5 mM MgCl2 or 5 mM CaCl2 added to 100 mM choline Cl; for thermal stability of KcsA tetramer: 100 mM KCl or 100 mM NaCl, heated 10 min at 60–99°C.
For data set [4], the target named is T1, KcsA tetramer. Briefly: Time course of decay of KcsA tetramer at 90°C. In kind it is binding.
Data set [5] deals with T1, KcsA tetramer. In kind it is binding.
Where [6] appears, read: values determined by Pauling, ref Hille (2001).
Setting [7] is: K0.5 (cation concentration at half-maximal stabilization), fit to Eq. 1, heated 10 min at 90°C, 10 mM Hepes-Tris pH 7.4.

Read-outs that look alike come from different tables or passages of the source.

For `[Ba+2]` [Ba^2+, BaCl2], the midpoint of the response on KcsA tetramer [1] (K0.5 of tetramer protection titration, heated 10 min at 90°C), the EC50, lay at 0.00021 mM. For the same molecule, in data set [2] (setting [6]), the Radius was 1.35 Å. For the molecule `[Ca+2].[Cl-].[Cl-]` [Ca^2+, CaCl2], the “effect on temperature dependence of KcsA tetramer” value on KcsA tetramer [3] was “small protective effect at temperatures >60 °C”. `[Cs+]` [Cs^+, CsCl]: on KcsA tetramer [1] (setting [7]), a half-maximal response (EC50) required 4.1 ± 3.5 mM. Besides, the Radius in data set [2] (setting [6]) is 1.69 Å. With `[K+]` [K^+, KCl], the EC50 (usually the concentration needed to bring the measured effect to its halfway point) at KcsA tetramer [1] (setting [7]) turned out to be 1.5 ± 2.5 mM. Besides, the “time course of tetramer denaturation” value on KcsA tetramer [4] (0.1 mM K^+ added to 100 mM choline Cl, 90°C) is “complex slower biphasic decay”. Also, the loss of tetramer entry at KcsA tetramer [4] (100 mM KCl, 30 min of incubation at 90°C) is “virtually no loss of tetramer”. In addition, the Pauling crystal radii in data set [2] is on record as 1.33 Å. In addition, the Radius in data set [2] (setting [6]) is recorded as 1.33 Å. Further, on KcsA tetramer [3], the “thermal stability of KcsA tetramer” value was “fully stable”. On to `[Li+]` [Li^+, LiCl], for which the IC50 (usually the concentration that gives 50% inhibition) against KcsA tetramer [5] amounted to 57 mM. In the case of `[Cl-].[Cl-].[Mg+2]` [Mg^2+, MgCl2], at KcsA tetramer [3], the “effect on temperature dependence of KcsA tetramer” value is given as “destabilize KcsA at lower temperatures”.

`N` [NH4 ^+, NH4Cl]: in data set [2] (estimated by a molecular graphics approach, ref Sun et al. (1997)), the Radius is reported as 1.8 Å. On to `[Na+]` [Na^+, NaCl], for which, in data set [2], the Pauling crystal radii is given as 0.95 Å. On KcsA tetramer [3], the “thermal stability of KcsA tetramer” value is “progressively lost at temperatures >65 °C”. As for `[Rb+]` [Rb^+, RbCl], at KcsA tetramer [1] (setting [7]), it took 1.7 ± 3.3 mM to reach a half-maximal effect (EC50). Also, in data set [2] (setting [6]), the Radius is given as 1.48 Å.

For `[Sr+2]` [Sr^2+, SrCl2], at KcsA tetramer [1] (K0.5 of tetramer protection titration, heated 10 min at 85°C), the EC50 is 0.011 mM. In addition, in data set [2] (setting [6]), the Radius was 1.13 Å. `[Tl+]` [Tl^+, Tl acetate] came in with an EC50 at KcsA tetramer [1] (setting [7]) of 1.1 mM. Further, the Radius in data set [2] (setting [6]) is reported as 1.40 Å.

As for `C[N+](C)(C)CCO.[Cl-]` [choline^+, choline Cl], the “time constant of single exponential decay of tetramer” value at KcsA tetramer [4] (100 mM choline Cl, absence of K^+, 90°C) amounted to 16.5 s.
